Test results reported in PubChem BioAssay AID179 (DTP/NCI, 2004).
Activity calls are given as the source filed them.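 How the source made its calls: active means compounds giving half or more protection of infected cells from virus-caused growth loss, again on retest; inactive means the rest.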 Where a SMILES comes first, the peptide text is derived from it. The star is where a group is joined. Cbz = O=C(OCc1ccccc1)*

System: CEM cells HIV-1 protection, formazan growth assay
Assay: NCI AIDS Antiviral Assay
Settings: for IC50: measured here: growth of uninfected CEM cells
Method in brief: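 Human CEM cells, uninfected and HIV-1-infected, exposed to five drug concentrations; growth measured by soluble formazan assay and scored as percent protection from infection, with protecting compounds retested.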

SMILES | EC50 [µM] | IC50 [µM] | outcome
O=C(O)c1ccc(CS(=O)c2ccc([N+](=O)[O-])cc2)c([N+](=O)[O-])c1 (configuration not stated) | > 708 | 501 | –
CC(=O)Nc1ccc(-c2nnc(SCC(=O)Nc3ccc(Cl)cc3)o2)cc1 | > 89.1 | 5.01 | –
N#CC(N)(C(=O)CCC(=O)Nc1cccc(Cl)c1)c1ccc(Cl)cc1 (configuration not stated) | > 661 | > 661 | –
Cc1cn(C2CC(N=[N+]=[N-])C(COC(=O)CCCCCCCCCCCI)O2)c(=O)[nH]c1=O (configuration not stated) | 0.049 | 102 | –
CCC[CH2][Ge]([CH2]CCC)([CH2]CCC)[O]C(=O)C(O)c1ccccc1 (configuration not stated) | 4.9 | 12 | –
Cc1nc(-n2nc(-c3ccccc3)cc2-c2ccccc2)sc1C(=O)CC(=O)C(=O)Nc1ccc(Cl)c(Cl)c1 | > 45.7 | > 45.7 | –
CCOc1ccccc1NC(=O)C(=O)C(C(=O)c1ccc2ccccc2c1)C1OC(=O)c2ccccc21 (configuration not stated) | > 72.4 | 31.6 | –
CN1C(=O)CN2C(Cl)(Cl)C2(c2ccccc2F)c2cc([N+](=O)[O-])ccc21 (configuration not stated) | > 200 | 141 | –
O=C(O)Cc1cccc2c(=O)c3ccccc3oc12 | > 200 | > 200 | –
CON(C)c1nc(N(C)OC)nc(N(C)OC)n1 | > 200 | > 200 | –
CCOP(=O)(OCC)C(Nc1ccc(F)cc1)c1ccccc1 (configuration not stated) | > 200 | 89.1 | –
CCOc1ccccc1N=Nc1c(-c2ccccc2)nn(C(=O)CC(=O)Nc2cccc(Cl)c2)c1-c1ccccc1 | > 45.7 | > 45.7 | –
CCOc1ccc(-n2nc(C(=O)O)cc(Cl)c2=O)cc1 | > 427 | 18.2 | –
CC1=NS(=O)(=O)NC(C)=C1CC1=C(C)NS(=O)(=O)N=C1C | > 269 | > 269 | –
Cc1[nH]c2ccccc2c1C1Cc2ccccc2N1C(=O)C#Cc1ccc([N+](=O)[O-])cc1 (configuration not stated) | – | – | inactive
N#CN/C(N)=N/CO | > 776 | 46.8 | –
O=C(NCCCN(CCCCN(CCCNC(=O)c1cc(S(=O)(=O)O)cc(O)c1O)C(=O)c1cc(S(=O)(=O)O)cc(O)c1O)C(=O)c1cc(S(=O)(=O)O)cc(O)c1O)c1cc(S(=O)(=O)O)cc(O)c1O | > 200 | 72.4 | –
COc1ccc(C2NC(=O)N3C(c4ccc(OC)c(OC)c4)NC(=O)N23)cc1OC (configuration not stated) | > 200 | > 200 | –
CC1(C)COC(c2cccc3c2C2C=CC3O2)=N1 (configuration not stated) | > 200 | > 200 | –
CCOC(=O)CNC(=O)Sc1ccccc1C(=O)N[C@@H](C)C(N)=O | 1.82 | 97.7 | –
Nc1c(Cl)ncnc1NCC1(CO)CCC1 | > 200 | 158 | –
CCC(CC)(CO)CNc1cc(Cl)nc(N)n1 | > 200 | > 100 | –
O=C(CCl)N1CCC(CC2(c3cc4ccccc4[nH]3)OCCO2)CC1 | > 200 | 5.01 | –
O=C1OCC(O)C(C2OC(=O)c3cc(O)c(O)c(O)c3-c3c(O)c(O)c(O)c4c3C(=O)OC2C4c2c(O)cc(O)c3c2OC(c2ccc(O)c(O)c2)C(O)C3)OC(=O)c2cc(O)c(O)c(O)c2-c2c1cc(O)c(O)c2O (configuration not stated) | > 22.4 | > 22.4 | –
O=C(O)c1cc(N=Nc2cccc([N+](=O)[O-])c2)ccc1O | > 200 | 67.6 | –
CCOC(=O)/C(=C/c1cc(OC)ccc1OC)P(=O)(OCC)OCC | > 676 | 316 | –
CCCC(=O)Nc1c(I)cc(I)c(CC(CC)C(=O)O)c1I (configuration not stated) | > 200 | > 200 | –
CCOC(=O)C(C)NC(=O)C(C)NC(=O)C(C)NC(=O)C(C)NC(=O)C(C)NC(=O)C(C)NC(=O)C(C)NC(=O)OCc1ccccc1 (configuration not stated) (Cbz-AAAAAAA-OEt; configuration not given here) | > 200 | > 200 | –
COc1ccc2c(c1)C1c3ccccc3CCN1CCC2 (configuration not stated) | > 200 | 79.4 | –
